What was measured:
LTB4 receptor = molecular target: T1, LTB4 receptor (Homo sapiens, UniProt Q15722); experiment: LTB4 Receptor Binding Assay; settings: potency relative to compound 1 defined as 1.0; (3H) LTB4 0.6×10^-9 M, human neutrophils
T1 construct: endogenous in cells; host or cells: neutrophils purified from venous blood of normal human donors (purity >95%)
Protocol: Neutrophils (4-6×10^6) in 1 ml Hanks' balanced salt solution containing 10 mM HEPES buffer (HBSS), pH 7.4 and 30 μM nordihydroguaiaretic acid were incubated with 0.6×10^-9 M (3H) LTB4 in the presence or absence of test compounds. The incubation was carried out at 0° C. for 45 minutes and terminated by adding 5 ml of ice-cold HBSS followed by rapid filtration of incubation mixture under vacuum through GF/C glass fiber filters. The filters were further washed with 10 ml HBSS and radioactivity was determined. Specific binding was defined as the difference between total binding and nonspecific binding which was not displaced by 10^-7 M unlabeled LTB4. All data refer to specific binding.

Human neutrophils [1] = experiment: Modified Boyden Chamber Chemotaxis (LTB4-induced); format: cell-based; settings: 3×10^-8 M LTB4; for Relative Potency, Chemotaxis: potency relative to compound 1 defined as 1.0
Protocol: Human neutrophils were isolated from citrated peripheral blood using standard techniques of dextran sedimentation, followed by centrifugation on Histopaque® sterile solution (Sigma) or Ficoll-paque® (Pharmacia) and hypotonic lysis of erythrocytes. A final cell suspension of 3.4×10^6 neutrophils/ml of HEPES-buffered Hanks balanced salt solution (HBSS, pH 7.3) was added to the upper well (0.8 ml) of a modified Boyden chamber (blind well). […] Percent inhibition was calculated from cell counts corrected for random migration by subtracting the mean of the HBSS control.

Human neutrophils [2] = experiment: Human Neutrophil Degranulation Assay (LTB4-induced myeloperoxidase release); format: cell-based; settings: LTB4 5×10^-8 M; for Relative Potency, Degranulation: potency relative to compound 1 defined as 1.0
Protocol: Neutrophils were purified from venous blood of normal human donors using standard techniques of dextran sedimentation, centrifugation on Ficoll-paque® (Pharmacia) or Histopaque® sterile solution (Sigma) and hypotonic lysis of erythrocytes (Boyum, A., Isolation of Leukocytes from Human Blood: Further Observations. Stand, J. Lab. Clin. Invest., 21 (Suppl. 97): 31, 1968). The purity of isolated neutrophils was >95%.
Neutrophil degranulation was determined by measuring the release of myeloperoxidase activity into the incubation medium. Neutrophils (3×10^6) in 1 ml HBSS solution were preincubated with cytochalasin B(5 μg) at 37° C. for 5 minutes, followed by preincubation with test compounds for 7 minutes. Neutrophils were then incubated for 2 to 20 minutes with LTB4 (5×10^-8 M) to induce degranulation. Following incubation, samples were centrifuged and myeloperoxidase was extracted from the cell pellets by sonication in phosphate buffer containing 0.4% Triton X-100. Triton X-100 was also added to the supernatants to a concentration of 0.4%. The supernatants and the pellet--extracts were then assayed spectrophotometrically for myeloperoxidase activity by determining the rate of decomposition of H2 O2 with o-dianisidine as hydrogen donor as described by Renlund, et al. (Renlund, D. G., MacFarlane, J. L., Christensen, R. D., Lynch, R. E., and Rothstein, G., A Quantitative and sensitive Method for Measurement of Myeloperoxidase, Clinical Research 28:75A, 1980). Myeloperoxidase activity released into the supernatant was expressed as the percent of the average total activity (pellet plus supernatant).

T1 sequence (Q15722 whole entry): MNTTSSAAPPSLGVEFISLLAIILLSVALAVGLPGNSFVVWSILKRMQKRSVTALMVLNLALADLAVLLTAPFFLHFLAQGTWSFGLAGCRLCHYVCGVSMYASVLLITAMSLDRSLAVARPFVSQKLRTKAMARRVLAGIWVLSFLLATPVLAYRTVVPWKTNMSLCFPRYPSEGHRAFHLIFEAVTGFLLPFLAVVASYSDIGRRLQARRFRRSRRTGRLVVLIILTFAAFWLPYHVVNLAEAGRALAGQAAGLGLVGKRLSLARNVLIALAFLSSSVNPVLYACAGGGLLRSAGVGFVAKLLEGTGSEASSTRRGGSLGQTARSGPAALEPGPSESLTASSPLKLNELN

| SMILES | Relative Potency, LTB4 Receptor Binding (LTB4 receptor) | Relative Potency, Chemotaxis (Human neutrophils [1]) | Relative Potency, Degranulation (Human neutrophils [2]) | IC50 (Human neutrophils [1]; Homo sapiens, Neutrophil) [µM] | IC50 (Human neutrophils [2]; Homo sapiens, Neutrophil) [µM] |
| --- | --- | --- | --- | --- | --- |
| C=CCc1c(OCCCOc2ccc3c(c2CCC)OC(c2nnn[nH]2)CC3)ccc(C(C)=O)c1OC (centres unmarked) | 0.8 | 9 | 38 |  |  |
| CCCc1c(OCCCOc2ccc(C(C)=O)c(OC)c2CC2CC2)ccc2c1OC(c1nnn[nH]1)CC2 (centres unmarked) | 2 | 22.5 | 75 |  |  |
| CCCc1c(OCCCOc2ccc(C(C)=O)c(OC)c2CCC)ccc2c1OC(C(=O)O)CC2 (centres unmarked) [Compound 1, 7-[3,(4-acetyl-3-methoxy-2-propylphenoxy)propoxy]-3,4-dihydro-8-propyl-2H-1-benzopyran-2-carboxylic acid, reference compound] |  |  |  | 1.8 | 1.5 |

From patent US5380740A, “Anti-inflammatory compounds, compositions and method of use thereof” (G. D. Searle & Co., priority 1993, dated 1995)
